Test results taken from the NIST ThermoML archive (doi:10.1016/j.tca.2011.02.027).
Numbers after ± are expanded uncertainties.

Assay: molar heat capacity at constant pressure; xn = mol fraction of the nth substance listed
Details: 101.3 kPa, Liquid, Large sample (1 g) DSC

SMILES: CCCCn1cc[n+](C)c1.[Br-] [1-butyl-3-methylimidazolium bromide] + O
- molar heat capacity at constant pressure (303.2 K, x1 = 0.1): 102.2 ± 4.3 J/K/mol
- molar heat capacity at constant pressure (303.2 K, x1 = 0.2): 123.4 ± 5.2 J/K/mol
- molar heat capacity at constant pressure (303.2 K, x1 = 0.3): 144.5 ± 6.1 J/K/mol
- molar heat capacity at constant pressure (303.2 K, x1 = 0.4): 165 ± 7 J/K/mol
- molar heat capacity at constant pressure (303.2 K, x1 = 0.5): 186.7 ± 7.9 J/K/mol
- molar heat capacity at constant pressure (303.2 K, x1 = 0.6): 209.6 ± 8.9 J/K/mol
- molar heat capacity at constant pressure (308.2 K, x1 = 0.1): 102.5 ± 4.3 J/K/mol
- molar heat capacity at constant pressure (308.2 K, x1 = 0.2): 124.1 ± 5.3 J/K/mol
- molar heat capacity at constant pressure (308.2 K, x1 = 0.3): 145.4 ± 6.2 J/K/mol
- molar heat capacity at constant pressure (308.2 K, x1 = 0.4): 166.1 ± 7 J/K/mol
- molar heat capacity at constant pressure (308.2 K, x1 = 0.5): 188 ± 8 J/K/mol
- molar heat capacity at constant pressure (308.2 K, x1 = 0.6): 211.2 ± 9 J/K/mol
- molar heat capacity at constant pressure (313.2 K, x1 = 0.1): 103 ± 4.4 J/K/mol
- molar heat capacity at constant pressure (313.2 K, x1 = 0.2): 124.9 ± 5.3 J/K/mol
- molar heat capacity at constant pressure (313.2 K, x1 = 0.3): 146.3 ± 6.2 J/K/mol
- molar heat capacity at constant pressure (313.2 K, x1 = 0.4): 167.1 ± 7.1 J/K/mol
- molar heat capacity at constant pressure (313.2 K, x1 = 0.5): 189.2 ± 8 J/K/mol
- molar heat capacity at constant pressure (313.2 K, x1 = 0.6): 212.9 ± 9 J/K/mol
- molar heat capacity at constant pressure (318.2 K, x1 = 0.1): 103.5 ± 4.4 J/K/mol
- molar heat capacity at constant pressure (318.2 K, x1 = 0.2): 125.8 ± 5.3 J/K/mol
- molar heat capacity at constant pressure (318.2 K, x1 = 0.3): 147.2 ± 6.2 J/K/mol
- molar heat capacity at constant pressure (318.2 K, x1 = 0.4): 168.1 ± 7.1 J/K/mol
- molar heat capacity at constant pressure (318.2 K, x1 = 0.5): 190.7 ± 8.1 J/K/mol
- molar heat capacity at constant pressure (318.2 K, x1 = 0.6): 214.5 ± 9.1 J/K/mol
- molar heat capacity at constant pressure (323.2 K, x1 = 0.1): 104 ± 4.4 J/K/mol
- molar heat capacity at constant pressure (323.2 K, x1 = 0.2): 126.6 ± 5.4 J/K/mol
- molar heat capacity at constant pressure (323.2 K, x1 = 0.3): 148.2 ± 6.3 J/K/mol
- molar heat capacity at constant pressure (323.2 K, x1 = 0.4): 169.2 ± 7.2 J/K/mol
- molar heat capacity at constant pressure (323.2 K, x1 = 0.5): 191.8 ± 8.1 J/K/mol
- molar heat capacity at constant pressure (323.2 K, x1 = 0.6): 216.2 ± 9.2 J/K/mol
- molar heat capacity at constant pressure (328.2 K, x1 = 0.1): 104.5 ± 4.4 J/K/mol
- molar heat capacity at constant pressure (328.2 K, x1 = 0.2): 127.5 ± 5.4 J/K/mol
- molar heat capacity at constant pressure (328.2 K, x1 = 0.3): 149.2 ± 6.3 J/K/mol
- molar heat capacity at constant pressure (328.2 K, x1 = 0.4): 170.4 ± 7.2 J/K/mol
- molar heat capacity at constant pressure (328.2 K, x1 = 0.5): 193.3 ± 8.2 J/K/mol
- molar heat capacity at constant pressure (328.2 K, x1 = 0.6): 217.9 ± 9.2 J/K/mol
- molar heat capacity at constant pressure (333.2 K, x1 = 0.1): 104.8 ± 4.4 J/K/mol
- molar heat capacity at constant pressure (333.2 K, x1 = 0.2): 128.3 ± 5.4 J/K/mol
- molar heat capacity at constant pressure (333.2 K, x1 = 0.3): 150.1 ± 6.4 J/K/mol
- molar heat capacity at constant pressure (333.2 K, x1 = 0.4): 171.6 ± 7.3 J/K/mol
- molar heat capacity at constant pressure (333.2 K, x1 = 0.5): 194.6 ± 8.3 J/K/mol
- molar heat capacity at constant pressure (333.2 K, x1 = 0.6): 219.5 ± 9.3 J/K/mol
- molar heat capacity at constant pressure (338.2 K, x1 = 0.1): 105.4 ± 4.5 J/K/mol
- molar heat capacity at constant pressure (338.2 K, x1 = 0.2): 129.2 ± 5.5 J/K/mol
- molar heat capacity at constant pressure (338.2 K, x1 = 0.3): 151.1 ± 6.4 J/K/mol
- molar heat capacity at constant pressure (338.2 K, x1 = 0.4): 172.9 ± 7.3 J/K/mol
- molar heat capacity at constant pressure (338.2 K, x1 = 0.5): 196.1 ± 8.3 J/K/mol
- molar heat capacity at constant pressure (338.2 K, x1 = 0.6): 221.3 ± 9.4 J/K/mol
- molar heat capacity at constant pressure (343.2 K, x1 = 0.1): 105.8 ± 4.5 J/K/mol
- molar heat capacity at constant pressure (343.2 K, x1 = 0.2): 130 ± 5.5 J/K/mol
- molar heat capacity at constant pressure (343.2 K, x1 = 0.3): 152.1 ± 6.5 J/K/mol
- molar heat capacity at constant pressure (343.2 K, x1 = 0.4): 173.9 ± 7.4 J/K/mol
- molar heat capacity at constant pressure (343.2 K, x1 = 0.5): 197.3 ± 8.4 J/K/mol
- molar heat capacity at constant pressure (343.2 K, x1 = 0.6): 223.1 ± 9.5 J/K/mol
- molar heat capacity at constant pressure (348.2 K, x1 = 0.1): 106.3 ± 4.5 J/K/mol
- molar heat capacity at constant pressure (348.2 K, x1 = 0.2): 131.1 ± 5.6 J/K/mol
- molar heat capacity at constant pressure (348.2 K, x1 = 0.3): 153.1 ± 6.5 J/K/mol
- molar heat capacity at constant pressure (348.2 K, x1 = 0.4): 175.2 ± 7.4 J/K/mol
- molar heat capacity at constant pressure (348.2 K, x1 = 0.5): 198.6 ± 8.4 J/K/mol
- molar heat capacity at constant pressure (348.2 K, x1 = 0.6): 224.9 ± 9.5 J/K/mol
- molar heat capacity at constant pressure (353.2 K, x1 = 0.1): 106.8 ± 4.5 J/K/mol
- molar heat capacity at constant pressure (353.2 K, x1 = 0.2): 131.9 ± 5.6 J/K/mol
- molar heat capacity at constant pressure (353.2 K, x1 = 0.3): 154.1 ± 6.5 J/K/mol
- molar heat capacity at constant pressure (353.2 K, x1 = 0.4): 176.2 ± 7.5 J/K/mol
- molar heat capacity at constant pressure (353.2 K, x1 = 0.5): 200 ± 8.5 J/K/mol
- molar heat capacity at constant pressure (353.2 K, x1 = 0.6): 226.5 ± 9.6 J/K/mol
- molar heat capacity at constant pressure (353.2 K, x1 = 1): 334.8 ± 14 J/K/mol
- molar heat capacity at constant pressure (358.2 K, x1 = 1): 338.1 ± 14 J/K/mol
- molar heat capacity at constant pressure (363.2 K, x1 = 1): 341.1 ± 14 J/K/mol
- molar heat capacity at constant pressure (368.2 K, x1 = 1): 344.6 ± 15 J/K/mol
- molar heat capacity at constant pressure (373.2 K, x1 = 1): 347.5 ± 15 J/K/mol
- molar heat capacity at constant pressure (378.2 K, x1 = 1): 350.6 ± 15 J/K/mol
- molar heat capacity at constant pressure (383.2 K, x1 = 1): 354.1 ± 15 J/K/mol
- molar heat capacity at constant pressure (388.2 K, x1 = 1): 356.7 ± 15 J/K/mol
- molar heat capacity at constant pressure (393.2 K, x1 = 1): 359.9 ± 15 J/K/mol
- molar heat capacity at constant pressure (398.2 K, x1 = 1): 363.4 ± 15 J/K/mol
- molar heat capacity at constant pressure (403.2 K, x1 = 1): 366.4 ± 16 J/K/mol
